Reference: ChEMBL document CHEMBL5236603, “Discovery of mobocertinib, a potent, oral inhibitor of EGFR exon 20 insertion mutations in non-small cell lung cancer” (Bioorg Med Chem Lett, 2023)

Columns and labels:
[1] = Inhibition of mouse EGFR delE746_A750 mutant stably expressed in mouse BaF3 cells assessed as cell viability incubated for 3 days by Cell Titer-Glo assay; type: cell-based; details: BaF3, 72 h
[2] = Inhibition of mouse EGFR Del-T790M double mutant stably expressed in mouse BaF3 cells assessed as cell viability incubated for 3 days by Cell Titer-Glo assay; type: cell-based; details: BaF3, 72 h
[3] = Inhibition of mouse EGFR D770_N771insNPG mutant stably expressed in mouse BaF3 cells assessed as cell viability incubated for 3 days by Cell Titer-Glo assay; type: cell-based; details: BaF3, 72 h
[4] = Inhibition of mouse EGFR V769_D770insASV mutant stably expressed in mouse BaF3 cells assessed as cell viability incubated for 3 days by Cell Titer-Glo assay; type: cell-based; details: BaF3, 72 h
[5] = Cmax in CD-1 mouse at 10 mg/kg, po by LC/MS/MS analysis; type: ADME, organism-based; set-up: dose 10 mg/kg, route po; details: in vivo
[6] = Cmax in CD-1 rat at 10 mg/kg, po by LC/MS/MS analysis; type: ADME, organism-based; set-up: dose 10 mg/kg, route po; details: in vivo
[7] = target: Epidermal growth factor receptor (Homo sapiens, UniProt P00533); assay: Inhibition of […]-induced EGFR phosphorylation in human A549 cells pretreated for 2 hrs followed by EGF stimulation by immune assay; type: cell-based
Sequence of Epidermal growth factor receptor (P00533 whole entry): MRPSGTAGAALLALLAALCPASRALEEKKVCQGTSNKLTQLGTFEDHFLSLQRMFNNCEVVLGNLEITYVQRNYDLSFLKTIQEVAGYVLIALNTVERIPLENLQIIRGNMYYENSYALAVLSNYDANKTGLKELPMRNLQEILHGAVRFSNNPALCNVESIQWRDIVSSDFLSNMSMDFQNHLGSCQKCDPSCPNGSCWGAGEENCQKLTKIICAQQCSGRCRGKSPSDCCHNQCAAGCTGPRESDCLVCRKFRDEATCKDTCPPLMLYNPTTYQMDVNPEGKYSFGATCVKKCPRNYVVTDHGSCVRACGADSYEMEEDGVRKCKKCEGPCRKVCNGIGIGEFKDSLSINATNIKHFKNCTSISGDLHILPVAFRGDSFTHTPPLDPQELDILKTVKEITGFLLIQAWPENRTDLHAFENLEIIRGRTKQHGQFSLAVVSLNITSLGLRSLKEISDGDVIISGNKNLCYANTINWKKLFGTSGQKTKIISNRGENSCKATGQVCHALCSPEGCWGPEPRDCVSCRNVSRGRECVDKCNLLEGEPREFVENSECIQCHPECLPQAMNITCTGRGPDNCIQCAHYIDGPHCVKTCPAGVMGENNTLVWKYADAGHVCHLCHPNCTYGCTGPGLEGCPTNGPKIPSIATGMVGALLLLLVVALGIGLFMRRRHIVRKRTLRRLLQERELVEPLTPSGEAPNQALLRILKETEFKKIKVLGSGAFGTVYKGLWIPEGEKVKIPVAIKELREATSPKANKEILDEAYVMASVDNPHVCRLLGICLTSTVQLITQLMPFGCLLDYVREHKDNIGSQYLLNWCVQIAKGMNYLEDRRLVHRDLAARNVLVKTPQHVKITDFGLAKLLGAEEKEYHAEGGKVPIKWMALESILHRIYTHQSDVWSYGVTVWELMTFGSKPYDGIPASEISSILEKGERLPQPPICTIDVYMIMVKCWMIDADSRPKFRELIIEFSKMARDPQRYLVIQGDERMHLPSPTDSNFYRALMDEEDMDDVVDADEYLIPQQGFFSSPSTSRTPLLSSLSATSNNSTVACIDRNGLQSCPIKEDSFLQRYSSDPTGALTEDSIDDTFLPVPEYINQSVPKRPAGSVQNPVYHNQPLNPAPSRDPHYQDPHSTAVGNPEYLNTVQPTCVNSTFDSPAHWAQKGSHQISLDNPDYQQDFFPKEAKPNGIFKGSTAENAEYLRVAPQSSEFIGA

[8] = AUClast in CD-1 mouse at 10 mg/kg, po by LC/MS/MS analysis; type: ADME, organism-based; set-up: dose 10 mg/kg, route po; details: in vivo
[9] = AUClast in CD-1 rat at 10 mg/kg, po by LC/MS/MS analysis; type: ADME, organism-based; set-up: dose 10 mg/kg, route po; details: in vivo
BaF3 [10] = assay: In vivo antitumor activity against mouse BaF3 cells expressing EGFR exon 20 insertion (ex20ins) ASV implanted in SCID mouse assessed as tumor growth inhibition at 50 mg/kg, po administered for 7 consecutive days; type: functional; details: 168 h, time 7 day, read-out: TGI
BaF3 [11] = assay: In vivo antitumor activity against mouse BaF3 cells expressing EGFR exon 20 insertion (ex20ins) ASV implanted in SCID mouse assessed as tumor regression at 100 mg/kg, po administered for 7 consecutive days; type: functional; details: time 7 day
BaF3 [12] = assay: In vivo antitumor activity against mouse BaF3 cells expressing EGFR exon 20 insertion (ex20ins) ASV implanted in SCID mouse assessed as tumor growth inhibition at 100 mg/kg, po administered for 7 consecutive days; type: functional; details: BaF3, 168 h, time 7 day, read-out: TGI
[13] = Cmax in CD rat at 5 mg/kg, po by LC/MS/MS analysis; type: ADME, organism-based; set-up: dose 5 mg/kg, route po; details: in vivo
[14] = AUC (0 to last)in CD rat at 5 mg/kg, po by LC/MS/MS analysis; type: ADME, organism-based; set-up: dose 5 mg/kg, route po; details: in vivo

Structure (SMILES) | IC50 [1] [nM] | IC50 [2] [nM] | IC50 [3] [nM] | IC50 [4] [nM] | Cmax [5] [ng/mL] | Cmax [6] [ng/mL] | IC50 [7] [nM] | AUC(0-t) [8] [ng·h/mL] | AUC(0-t) [9] [ng·h/mL] | inhibition in vivo at 50 mg/kg (BaF3 [10]) [%] | Activity (BaF3 [11]) [%] | inhibition in vivo at 100 mg/kg (BaF3 [12]) [%] | Cmax [13] [ng/mL] | AUC(0-t) [14] [ng·h/mL]
C=CC(=O)Nc1cc(Nc2nccc(-c3cn(C)c4ccccc34)n2)c(OC)cc1N(C)CCN(C)C [OSIMERTINIB] | 6 | 7 | 53 | 158 | 175 | 98 |  |  |  |  |  |  |  | 
C=CC(=O)Nc1cc(Nc2nccc(-c3cn4c5c(cccc35)CCC4)n2)c(OC)cc1N(C)CCN(C)C |  |  | 54 | 197 | 81 | 126 | 405 | 285 | 466 |  |  |  |  | 
C=CC(=O)Nc1cc(Nc2ncc(Cl)c(-c3cn4c5c(cccc35)CCC4)n2)c(OC)cc1N(C)CCN(C)C |  |  | 22 | 58 |  |  | 71 |  |  |  |  |  |  | 
C=CC(=O)Nc1cc(Nc2ncc(-c3ccnn3C)c(-c3cn4c5c(cccc35)CCC4)n2)c(OC)cc1N(C)CCN(C)C |  |  | 11 | 28 | 218 | 320 | 23 | 884 | 2950 |  |  |  |  | 
C=CC(=O)Nc1cc(Nc2ncc(C(=O)OC(C)C)c(-c3cn(C)c4ccccc34)n2)c(OC)cc1N(C)C[C@H]1CCCN1C |  |  | 6 | 12 | 94 | 40 | 43 | 294 | 323 | 72 | -10 |  |  | 
C=CC(=O)Nc1cc(Nc2nccc(-c3c4n(c5ccccc35)CCOC4)n2)c(OC)cc1N(C)CCN(C)C |  |  | 53 | 112 | 183 | 248 | 288 | 655 | 2670 |  |  |  |  | 
C=CC(=O)Nc1cc(Nc2ncc(C(=O)OC(C)C)c(-c3cn(C(C)=O)c4ccccc34)n2)c(OC)cc1N(C)CCN(C)C |  |  | 3 | 4 | 42 | 16 | 79 | 87 | 38 |  |  |  |  | 
C=CC(=O)Nc1cc(Nc2ncc(C(=O)OC)c(-c3cn4c5c(cccc35)CCC4)n2)c(OC)cc1N(C)CCN(C)C |  |  | 6.57 | 22.1 | 20 | 170 | 40 | 56 | 1920 |  |  |  |  | 
C=CC(=O)Nc1cc(Nc2ncc(C#N)c(-c3cn4c5c(cccc35)CCC4)n2)c(OC)cc1N(C)CCN(C)C |  |  | 3.99 | 9.38 | 29 | 13 | 35 | 200 | 58 |  |  | 76 |  | 
C=CC(=O)Nc1cc(Nc2ncc(C(=O)CC)c(-c3cn4c5c(cccc35)CCC4)n2)c(OC)cc1N(C)CCN(C)C |  |  | 4.95 | 17.3 |  |  | 23 |  |  |  |  |  |  | 
C#Cc1cnc(Nc2cc(NC(=O)C=C)c(N(C)CCN(C)C)cc2OC)nc1-c1cn2c3c(cccc13)CCC2 |  |  | 9.8 | 25 |  |  | 42 |  |  |  |  |  |  | 
C=CC(=O)Nc1cc(Nc2ncc(-c3nnco3)c(-c3cn4c5c(cccc35)CCC4)n2)c(OC)cc1N(C)CCN(C)C |  |  | 6.2 | 13 | 9 | 38 | 15 | 22 | 427 |  |  |  |  | 
C=CC(=O)Nc1cccc(Nc2nc(Nc3ccc(N4CCN(C(C)=O)CC4)cc3OC)ncc2C(F)(F)F)c1 [ROCILETINIB] | 25 | 9 | 179 | 883 |  |  |  |  |  |  |  |  |  | 
C=CC(=O)Nc1cc(Nc2ncc(C(=O)OC(C)C)c(-c3cn(C4CC4)c4ccccc34)n2)c(OC)cc1N(C)CCN(C)C |  |  | 23 | 30 |  |  | 224 |  |  |  |  |  |  | 
C=CC(=O)Nc1cc(Nc2ncc(-c3cnn(C)c3)c(-c3cn4c5c(cccc35)CCC4)n2)c(OC)cc1N(C)CCN(C)C |  |  |  | 16 | 59 |  | 15 | 105 |  |  |  |  | 90 | 853
C=CC(=O)Nc1cc(Nc2ncc(C(=O)OC3CCC3)c(-c3cn(C)c4ccccc34)n2)c(OC)cc1N(C)CCN(C)C |  |  | 9 | 28 |  |  | 84 |  |  |  |  |  |  | 

Structure (SMILES) | IC50 [1] [nM] | IC50 [2] [nM] | IC50 [3] [nM] | IC50 [4] [nM] | Cmax [5] [ng/mL] | Cmax [6] [ng/mL] | IC50 [7] [nM] | AUC(0-t) [8] [ng·h/mL] | AUC(0-t) [9] [ng·h/mL] | inhibition in vivo at 50 mg/kg (BaF3 [10]) [%] | Activity (BaF3 [11]) [%] | inhibition in vivo at 100 mg/kg (BaF3 [12]) [%] | Cmax [13] [ng/mL] | AUC(0-t) [14] [ng·h/mL]
C=CC(=O)Nc1cc(Nc2ncc(C(=O)OCC(C)C)c(-c3cn(C)c4ccccc34)n2)c(OC)cc1N(C)CCN(C)C |  |  | 14 | 43 |  |  | 142 |  |  |  |  |  |  | 
C=CC(=O)Nc1cc(Nc2ncc(Cl)c(-c3c4n(c5ccccc35)CCOC4)n2)c(OC)cc1N(C)CCN(C)C |  |  | 754 | 1020 |  |  | 2970 |  |  |  |  |  |  | 
C=CC(=O)Nc1cc(Nc2ncc(Cl)c(-c3cn4c5c(cccc35)OCC4)n2)c(OC)cc1N(C)CCN(C)C |  |  | 15 | 35 |  |  | 36 |  |  |  |  |  |  | 
C=CC(=O)Nc1cc(Nc2ncc(-c3nc(C)no3)c(-c3cn4c5c(cccc35)CCC4)n2)c(OC)cc1N(C)CCN(C)C |  |  | 11 | 38 | 31 |  | 49 | 96 |  |  |  |  |  | 
CN(C)C/C=C/C(=O)Nc1cc2c(Nc3ccc(F)c(Cl)c3)ncnc2cc1O[C@H]1CCOC1 [AFATINIB] | 0.6 | 97 | 36 | 44 |  |  |  |  |  |  |  |  |  | 
C=CC(=O)Nc1cc(Nc2ncc(C(=O)OC(C)C)c(-c3cn(CC)c4ccccc34)n2)c(OC)cc1N(C)CCN(C)C |  |  | 5 | 7 | 72 | 149 | 24 | 631 | 1920 |  |  |  |  | 
C=CC(=O)Nc1cc(Nc2ncc(C(=O)NC)c(-c3cn4c5c(cccc35)CCC4)n2)c(OC)cc1N(C)CCN(C)C |  |  | 37.6 | 136 |  |  | 147 |  |  |  |  |  |  | 
C=CC(=O)Nc1cc(Nc2ncc(-c3ncco3)c(-c3cn4c5c(cccc35)CCC4)n2)c(OC)cc1N(C)CCN(C)C |  |  | 9 | 29 | 57 | 86 | 45 | 234 | 1140 |  |  |  |  | 
C=CC(=O)Nc1cc(Nc2ncc(-c3cnn(C(C)C)c3)c(-c3cn4c5c(cccc35)CCC4)n2)c(OC)cc1N(C)CCN(C)C |  |  | 13 | 16 | 46 | 163 | 15 | 353 | 2020 |  |  |  |  | 
C=CC(=O)Nc1cc(Nc2ncc(C(=O)OCC)c(-c3cn(C)c4ccccc34)n2)c(OC)cc1N(C)CCN(C)C |  |  | 6 | 13 | 45 | 113 | 19 | 129 | 1540 |  |  |  |  | 
C=CC(=O)Nc1cc(Nc2ncc(Cl)c(-c3cnn4ccccc34)n2)c(OC)cc1N(C)CCN(C)C |  |  | 32 | 59 |  |  | 95 |  |  |  |  |  |  | 
C=CC(=O)Nc1cc(Nc2nccc(-c3cn4c5c(cccc35)OCC4)n2)c(OC)cc1N(C)CCN(C)C |  |  | 52 | 137 | 97 | 207 |  | 438 | 2680 |  |  |  |  | 
C=CC(=O)Nc1cc(Nc2ncc(C(=O)OC(C)C)c(-c3cn(C)c4ccccc34)n2)c(OC)cc1N(C)C[C@@H]1CCCN1C |  |  | 8 | 14 | 145 | 107 | 57 | 643 | 1390 | 82 | -51 |  |  | 
C=CC(=O)Nc1cc(Nc2ncc(C(=O)OC(C)C)c(-c3cn4c5c(cccc35)CCC4)n2)c(OC)cc1N(C)CCN(C)C |  |  | 6.57 | 12.4 |  |  | 39 |  |  |  |  |  |  | 
C=CC(=O)Nc1cc(Nc2ncc(C(=O)OCC)c(-c3cn4c5c(cccc35)CCC4)n2)c(OC)cc1N(C)CCN(C)C |  |  | 6.43 | 15 | 29 | 110 | 32 | 102 | 1480 |  |  |  |  | 
C=CC(=O)Nc1cc(Nc2ncc(C(=O)OC)c(-c3cn(C)c4ccccc34)n2)c(OC)cc1N(C)CCN(C)C |  |  | 8 | 18 | 31 | 207 | 20 | 92 | 2300 |  |  |  |  | 
